Structures are written as SMILES. Counter-ions that a name gives are not always drawn.

Holding throughout (type): cell-based
Test [1] relates to human acute myeloid leukemia cell line MV-4-11. Put plainly: Cytostatic activity on leukemia cell line MV-4-11 (WST-1). The settings on record: 72 hours, MV-4-11 cells; for inhibition at 10 µM: Homo sapiens, MV4-11, 10 μmol/L, read-out: cytostatic rate MV-4-11 (%) (10 μmol/L). An outline of the steps: (§1)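 Cells in RPMI 1640/10% FBS were pre-cultured 4 h, then exposed to test compound at 10 μmol/L (0.1% DMSO) for 72 h at 37 °C. WST-1 read at 450 nm (690 nm reference); cytostatic rate = 100 − growth relative to DMSO control (100%) and medium blank (0%).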

The test system of test [2] is human acute myeloid leukemia cell line ML-1. Put plainly: Cytostatic activity on leukemia cell line ML-1 (WST-1). Conditions: 72 hours, ML-1 cells; for inhibition at 10 µM: Homo sapiens, ML1, 10 μmol/L, read-out: cytostatic rate ML-1 (%) (10 μmol/L). In outline:
as §1

The subject of test [3] is human chronic myeloid leukemia cell line K562. Put plainly: Cytostatic activity on leukemia cell line K562 (WST-1). Conditions: 72 hours, K562 cells; for inhibition at 10 µM: Homo sapiens, 10 μmol/L, read-out: cytostatic rate K562 (%) (10 μmol/L). An outline of the steps:
as §1

The test system of test [4] is human colon cancer cell line Colo205. Put plainly: Cytostatic activity on solid carcinoma cell line Colo205 (WST-1). The settings on record: 72 hours, Colo205 cells; for inhibition at 10 µM: Homo sapiens, COLO 205, 10 μmol/L, read-out: cytostatic rate Colo205 (%) (10 μmol/L). In outline: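 Colo205 cells in RPMI 1640 with 10% FBS were pre-cultured 24 h, then exposed to compound at 10 μmol/L final (0.1% DMSO) for 72 h at 37° C. WST-1 was added for 2 h and A450 (ref 690 nm) read. Cytostatic rate = 100 − relative growth, with DMSO control set at 100% and medium blank at 0%.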

In the case of `CC(C)NC(=O)CN1CCN(C(=O)c2ccc(/C=C/c3n[nH]c4ccccc34)cc2)CC1` [Compound 135, (E)-1-{4-[2-(1H-indazol-3-yl)vinyl]benzoyl}-4-[2-oxo-2-(isopropylamino)ethyl]piperazine dihydrochloride], the inhibition at 10 µM in test [1] turned out to be 99%; in test [2] it was 79%; in test [3], 93%; in test [4], 87%.
For `CC(CO)(CO)C(=O)N1CCN(C(=O)c2ccc(/C=C/c3n[nH]c4ccccc34)cc2)CC1` [Compound 136, (E)-4-(3-hydroxy-2-hydroxymethyl-2-methylpropionyl)-1-{4-[2-(1H-indazol-3-yl)vinyl]benzoyl}piperazine hydrochloride], in that order: 99%, 82%, 94% and 91%.
For `CC(=O)N(C)CC(=O)N1CCN(C(=O)c2ccc(/C=C/c3n[nH]c4ccccc34)cc2)CC1` [Compound 138, (E)-4-(N-acetyl-N-methylaminoacetyl)-1-{4-[2-(1H-indazol-3-yl)vinyl]benzoyl}piperazine] the same measures were 99%, 88%, 94% and 91%.
For `O=C(c1ccc(/C=C/c2n[nH]c3ccccc23)cc1)N1CCN(C(=O)[C@@H]2CCCN2)CC1` [Compound 140, (S)-(E)-4-[(pyrrolidin-2-yl)carbonyl]-1-{4-[2-(1H-indazol-3-yl)vinyl]benzoyl}piperazine] the same measures were 99%, 82%, 95% and 85%.
`CN1CCC(C(=O)N2CCN(C(=O)c3ccc(/C=C/c4n[nH]c5ccccc45)cc3)CC2)CC1` [Compound 143, (E)-4-[(1-methylpiperidin-4-yl)carbonyl]-1-{4-[2-(1H-indazol-3-yl)vinyl]benzoyl}piperazine]: the inhibition at 10 µM in test [1] was 100%; in test [2], 84%; in test [3] it was 95%; in test [4] it was 92%.
For `CN1CCCC1C(=O)N1CCN(C(=O)c2ccc(/C=C/c3n[nH]c4ccccc34)cc2)CC1` (stereo not shown) [Compound 145, (E)-4-[(1-methylpyrrolidin-2-yl)carbonyl]-1-{4-[2-(1H-indazol-3-yl)vinyl]benzoyl}piperazine], in that order: 99%, 85%, 94% and 92%.
`O=C(c1ccc(/C=C/c2n[nH]c3ccccc23)cc1)N1CCN(O)CC1` [Compound 147, (E)-4-Hydroxy-1-{4-[2-(1H-indazol-3-yl)vinyl]benzoyl}piperazine]: the inhibition at 10 µM is 99% in test [1], 89% in test [2], 77% in test [3] and 83% in test [4].
As for `CC(C)(C)OC(=O)NN1CCN(C(=O)c2ccc(/C=C/c3n[nH]c4ccccc34)cc2)CC1` [Compound 148, (E)-1-{4-[2-(1H-indazol-3-yl)vinyl]benzoyl}-4-(tert-butyloxycarbonylamino)piperazine], the inhibition at 10 µM in test [1] stood at 98%; in test [2], 81%; in test [3], 91%; in test [4], 83%.
For `O=C(NN1CCN(C(=O)c2ccc(/C=C/c3n[nH]c4ccccc34)cc2)CC1)N1CCOCC1` [Compound 150, (E)-1-{4-[2-(1H-indazol-3-yl)vinyl]benzoyl}-4-(morpholinocarbonylamino)piperazine], in that order: 97%, 67%, 90% and 88%.
Turning to `O=C(c1ccc(/C=C/c2n[nH]c3ccccc23)cc1)N1CCN(c2c(N3CCCCC3)c(=O)c2=O)CC1` [Compound 155, (E)-3-piperidino-4-{[4-(2-(1H-indazol-3-yl)vinyl)benzoyl]piperazin-1-yl}-3-cyclobutene-1,2-dione], the “cytostatic rate MV-4-11 (%) (10 μmol/L)” value in test [1] is 97%. The “cytostatic rate ML-1 (%) (10 μmol/L)” value in test [2] was 79%. Moreover, the “cytostatic rate K562 (%) (10 μmol/L)” value in test [3] is reported as 96%. For the same molecule, the “cytostatic rate Colo205 (%) (10 μmol/L)” value in test [4] was 88%.
Regarding `O=C(c1ccc(/C=C/c2n[nH]c3ccccc23)cc1)N1CCN(c2c(N3CCOCC3)c(=O)c2=O)CC1` [Compound 156, (E)-3-morpholino-4-{[4-(2-(1H-indazol-3-yl)vinyl)benzoyl]piperazin-1-yl}-3-cyclobutene-1,2-dione], in test [1], the “cytostatic rate MV-4-11 (%) (10 μmol/L)” value is recorded as 99%. In test [2], the “cytostatic rate ML-1 (%) (10 μmol/L)” value worked out at 85%. Besides, the “cytostatic rate K562 (%) (10 μmol/L)” value in test [3] was found to be 94%. Further, the “cytostatic rate Colo205 (%) (10 μmol/L)” value in test [4] was 92%.
`N[C@@H]1CCN(C(=O)c2ccc(/C=C/c3n[nH]c4ccccc34)cc2)C1` [Compound 158, (R)-(E)-1-{4-[2-(1H-Indazol-3-yl)vinyl]benzoyl}-3-aminopyrrolidine]: the inhibition at 10 µM was found to be 98% in test [1], 80% in test [2], 90% in test [3] and 91% in test [4].
With `N[C@H]1CCN(C(=O)c2ccc(/C=C/c3n[nH]c4ccccc34)cc2)C1` [Compound 159, (S)-(E)-1-{4-[2-(1H-indazol-3-yl)vinyl]benzoyl}-3-aminopyrrolidine], the inhibition at 10 µM in test [1] was 99%; in test [2], 86%; in test [3], 93%; in test [4] it was 92%.

The record behind these values is patent US7919517B2, “Indazole derivatives” (Kyowa Hakko Kirin Co., Ltd., priority 2003, dated 2011).
